Data set [1] in a line: Model tooth surface binding experiment (menthol-PPi/hydroxyapatite binding by 1H NMR). The conditions noted are these: for speed of binding to HA (time to maximum binding): HA powder, vortex agitation, diphosphate. As for the experimental part:
Menthol-PPi (80 mg) was dissolved in deuterium oxide (D2O, 16.1159 g). Two drops (34.7 mg) of acetone was added as an internal reference when using NMR spectroscopy. Four time intervals were chosen for this study, each with three samples for each interval. Into each of twelve microcentrifuge tubes was added 10 mg hydroxyapatite (HA). One by one, […] was added to the tubes and then agitated with a vortex mixer at high speed for the allotted amount of time. Each tube was then centrifuged at 12.000 rpm for one minute. The liquid was then transferred to NMR tubes for analysis. Three blank NMR samples without the influence of HA were prepared for reference, as well as three control samples without pyrophosphate (i.e., menthol only) with HA. The spectra of the blank samples were compared to those of the experimental samples by observing the relative integration areas of the acetone peak vs. the signal from one methyl group of menthol's isopropyl component. No binding is observed without pyrophosphate.
An additional experiment was performed, changing the hydroxyapatite amount while keeping the vortex time fixed at 2 minutes for each sample, simulating the average time a person spends brushing his or her teeth. Menthol-PPi (80 mg) was dissolved in 16.14 g D2O. Two drops (25.7 mg) of acetone were again added as internal reference. One gram of the menthol-PPi solution was added to the HA test tubes just prior to vortex agitation, as before. Samples were again analyzed via ^1H NMR.

Data set [2] in a line: Menthol release in filtered saliva diluted 1:1 with PBS over 24 hours (GC/MS, FIG. 2). The class given is in vitro ADME, human. The conditions noted are these: saliva/PBS 1:1, 37° C. Here is the method:
FIG. 2 provides a graph of the menthol release after chloroform extraction over the course of 24 hours.
Into several 15-mL glass vials were placed 10 mg of menthol-PPi and 2 mL of fresh saliva. The saliva had been centrifuged to remove any free particles, then filtered through a 0.45 μm syringe filter to rid bacteria. It was then diluted 1:1 by volume with phosphate-buffered saline (PBS). Each sample was placed in a water bath incubator at 37° C., shaking at 40 rpm, for a specific amount of time over the course of 24 hours. One sample was withdrawn at each time interval, and vortexed for 10 seconds after direct addition of 2 mL of chloroform. The mixture was transferred to microcentrifuge tubes, after which each tube was centrifuged at 12,000 rpm for one minute to separate the chloroform phase from the water (saliva/PBS) phase. […] After GC/MS analysis of each sample, the total amount of menthol released was calculated using the integration areas of menthol and neomenthol, simplified into a ratio. […] The absolute amount, in μg, of menthol in each GC/MS vial was determined by multiplying the concentration by 1 mL, the total amount of solution in the vial. Then, the release amount was calculated by taking the previous value and multiplying it by a factor of 4, since the original sample was 2 mL. […]

Consider `CC(C)[C@@H]1CC[C@@H](C)C[C@H]1OC(=O)COP(=O)([O-])OP(=O)([O-])[O-].[Na+].[Na+].[Na+]` [Menthol-PPi, sodium 2-((1R,2S,5R)-2-isopropyl-5-methylcyclohexyloxy)-2-oxoethyl diphosphate], for which the “HA-Bound Conjugate (% ± σ %)” value is given as 27.56 ± 4.44% in data set [1] (10 mg hydroxyapatite, vortex time 1 min); 25.69 ± 0.77% in data set [1] (10 mg hydroxyapatite, vortex time 2 min); 28.30 ± 2.70% in data set [1] (10 mg hydroxyapatite, vortex time 5 min); 28.25 ± 3.04% in data set [1] (10 mg hydroxyapatite, vortex time 10 min); 33.88 ± 6.32% in data set [1] (20 mg hydroxyapatite, time fixed at two minutes); 45.04 ± 1.34% in data set [1] (30 mg hydroxyapatite, time fixed at two minutes). The “HA-Bound Conjugate (% ± σ %)” value in data set [1] (40 mg hydroxyapatite, time fixed at two minutes) was determined as 54.51 ± 3.65%. Besides, the “speed of binding to HA (time to maximum binding)” value in data set [1] was “within one minute”; in data set [1] (listed as menthol-PPi), “very quickly”. In data set [2], the “release profile of menthol from the pyrophosphate” value is “linear in nature”.

As to `CC1CCC(C(C)C)C(O)C1` (centres unmarked) [menthol, reference compound], the “binding to HA” value in data set [1] (control samples without pyrophosphate (menthol only) with HA) is given as “No binding”.

These data come from patent US20150290106A1, “Dentotropic Conjugates and Compositions and Methods of Use Thereof” (BOARD OF REGENTS OF THE UNIVERSITY OF NEBRASKA, priority 2012, published 2015).
